Measurements reported in PubChem BioAssay (NCI).
Several values for one entry are separate records, joined by “and”; a condition that tells them apart may be missing. Equal entries are not always repeated.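 Five compound concentrations were applied to cells in 96-well plates for 48 hours; endpoints were derived by simple linear interpolation of the resulting dose-response curve. GI50 = concentration required for 50% inhibition of growth. TGI: concentration producing complete growth inhibition.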 Where a SMILES comes first, the peptide text is derived from it. [ ]: non-standard residue; d: D form. 2Nal = N[CH](Cc1ccc2ccccc2c1)C(=O)O

Columns and labels:
Assay in all cases: inhibition of tumour cell growth, NCI panel, 48 h
MCF7 breast = tested on: MCF7 breast
SK-MEL-2 melanoma = tested on: SK-MEL-2 melanoma
MDA-MB-231 breast = tested on: MDA-MB-231 breast
RPMI-8226 leukemia = tested on: RPMI-8226 leukemia
SW-620 colon = tested on: SW-620 colon
NCI-H226 lung = tested on: NCI-H226 lung
NCI-H460 lung = tested on: NCI-H460 lung
COLO 205 colon = tested on: COLO 205 colon
HCT-15 colon = tested on: HCT-15 colon
SR leukemia = tested on: SR leukemia

| SMILES | GI50 (MCF7 breast) | TGI (MCF7 breast) | GI50 (SK-MEL-2 melanoma) | TGI (SK-MEL-2 melanoma) | GI50 (MDA-MB-231 breast) | TGI (MDA-MB-231 breast) | GI50 (RPMI-8226 leukemia) | TGI (RPMI-8226 leukemia) | GI50 (SW-620 colon) | TGI (SW-620 colon) | GI50 (NCI-H226 lung) | TGI (NCI-H226 lung) | GI50 (NCI-H460 lung) | TGI (NCI-H460 lung) | GI50 (COLO 205 colon) | TGI (COLO 205 colon) | GI50 (HCT-15 colon) | TGI (HCT-15 colon) | TGI (SR leukemia) | GI50 (SR leukemia) |
| --- | --- | --- | --- | --- | --- | --- | --- | --- | --- | --- | --- | --- | --- | --- | --- | --- | --- | --- | --- | --- |
| C[C@]12CC[C@H]3[C@@H](C[C@@H]4SC(Nc5cccc(F)c5)=N[C@@]45CC(=O)CC[C@]35C)[C@@H]1CCC2=O | 1.37 µM | 3.28 µM | 1.86 µM | 5.2 µM | 2.11 µM | 4.59 µM | 0.865 µM | 3.9 µM | 2.33 µM | 4.99 µM | 2.35 µM | 5.7 µM | 2.52 µM | 5.58 µM | 2.16 µM | 4.81 µM | 1.58 µM | 4.08 µM |  |  |
| CC(=O)Nc1ccc(/C=c2\sc3nnc(/C=C/c4ccccc4)n3c2=O)cc1 |  |  |  | > 50 µM |  |  |  | > 50 µM |  | > 50 µM |  | > 50 µM |  | > 50 µM |  | > 50 µM |  |  |  |  |
| CC1CC2C3CC(F)C4=CC(=O)C=CC4(C)C3(F)C(O)CC2(C)C1(O)C(=O)CO (stereo unspecified) |  |  |  | > 100 µM |  |  |  | > 100 µM |  | > 100 µM |  | > 100 µM |  | > 100 µM |  | > 100 µM |  | > 100 µM | > 100 µM |  |
| O=C1CCC(=O)c2cc(Br)ccc2N1 |  |  |  | > 100 µM |  |  |  | > 100 µM |  | > 100 µM |  | > 100 µM |  | > 100 µM |  | > 100 µM |  | > 100 µM | 63.1 µM |  |
| Cc1ccc(NC(=O)SCCC(=O)O)cc1NC(=O)SCCC(=O)O |  |  |  | > 100 µM |  |  |  | > 100 µM |  | > 100 µM |  | > 100 µM |  | > 100 µM |  | > 10 µM |  | > 100 µM | > 100 µM |  |
| COc1cc2c(cc1OC)-c1c(cc(OC)c(OC)c1OC)C2=O |  |  |  |  |  |  |  | > 100 µM |  | > 100 µM |  | > 100 µM |  | > 100 µM |  | > 100 µM |  | > 100 µM | > 100 µM |  |
| Oc1cccc(C2SCc3nc4ccccc4n32)c1 (stereo unspecified) |  |  |  | > 100 µM |  |  |  | > 100 µM |  | > 100 µM |  | > 100 µM |  | > 100 µM |  | > 100 µM |  |  | > 100 µM |  |
| O=C(O)/C(O)=C1/C=C(c2ccccc2)c2ccccc21 |  |  |  | 33.1 µM |  |  |  | 56.8 µM |  | 37.7 µM |  | 59.6 µM |  | 62.7 µM |  | 31.9 µM |  | 50.6 µM | 47.1 µM |  |
| O=C(Nc1cc(C(F)(F)F)ccc1Cl)C(=O)C(C(=O)c1ccc2ccccc2c1)C1OC(=O)c2ccccc21 (stereo unspecified) |  |  |  | 28.7 µM |  |  |  | > 54.5 µM |  | 37.8 µM |  | 3.36 µM |  | 20.7 µM |  | 37.3 µM |  | 30.1 µM | 14.9 µM |  |
| CC1=CC(C)C(O)C(C)/C=C/C(O)C/C=C(/C)C(=O)CC(O)C(C)\C=C/C=C/C=C\C(=O)NC2=C(O)c3cc(C)c(O)c(c3C(=O)C2=O)C1=O (stereo unspecified) |  | 65 µM |  | > 100 µM |  | > 100 µM |  | > 100 µM |  | > 100 µM |  |  |  | > 100 µM |  | > 100 µM |  | > 100 µM | > 100 µM |  |
| CNC(=O)OCc1nc(S(C)=O)n(C)c1COC(=O)NC (stereo unspecified) |  | > 100 µM |  | > 100 µM |  |  |  | > 100 µM |  | > 46.4 µM |  | > 100 µM |  | > 100 µM |  | > 62.6 µM |  | > 100 µM | > 100 µM |  |
| COc1ccc2cc(C(=O)/C=C/c3ccc(OC)c(OC)c3)ccc2c1 | 1.43 µM | 7.33 µM |  |  | 4.75 µM | 42.8 µM | 4.09 µM | 20.3 µM | 4.21 µM | 27.1 µM |  |  | 7.38 µM | > 100 µM | 30.7 µM | 73.5 µM | 3.11 µM | > 100 µM | 6.16 µM | 2.04 µM |
| CSc1s[s+]c(SC)c1[O-] |  |  |  | > 100 µM |  |  |  |  |  | 31.7 µM |  | > 100 µM |  | > 100 µM |  | 68.8 µM |  | > 100 µM | 37 µM |  |
| N/C(=N\C(=S)N1CCCCC1)N1CCCCC1 |  |  |  | > 100 µM |  |  |  | > 100 µM |  | > 100 µM |  | > 100 µM |  | > 100 µM |  |  |  | > 100 µM | > 100 µM |  |
| COc1ccc(OC)c(-c2nc3sccn3c2/C=C2/C(=O)Nc3ccccc32)c1 | 0.476 µM | > 35.7 µM | 0.713 µM | 29.4 µM | 2.11 µM | 25.3 µM | 0.241 µM | 0.856 µM | 0.506 µM | 21.4 µM | 1.4 µM | 4.89 µM | 0.511 µM | > 37.6 µM | 0.595 µM |  | 0.434 µM | 14.8 µM |  |  |
| CC(NC(=O)C(N)Cc1ccccc1)C(=O)NC(Cc1ccc(O)cc1)C(=O)NC(Cc1c[nH]c2ccccc12)C(=O)NC(CCCCN)C(=O)NC(C(=O)NC(C)C(=O)NC(Cc1ccc2ccccc2c1)C(N)=O)C(C)C (stereo unspecified) (H-FAYWKVA[2Nal]-NH2; configuration not given here) |  | > 12.5 µM | 25.1 µM | > 12.5 µM and 52.1 µM |  | > 12.5 µM | 16.3 µM | > 12.5 µM and 30.4 µM |  | > 12.5 µM |  | > 12.5 µM | 22.7 µM | > 12.5 µM and 52.3 µM | 27.1 µM | > 12.5 µM and 61.2 µM | 22.1 µM | > 12.5 µM and 61.8 µM |  |  |
| O=C1OC(=O)C2C3CCC(O3)C12 (stereo unspecified) |  |  |  | > 100 µM |  |  |  | > 100 µM |  | > 100 µM |  | > 100 µM |  | > 100 µM |  | > 100 µM |  |  | > 100 µM |  |
| C=C(CO)CC(O)c1ccccc1 (stereo unspecified) |  |  |  | > 100 µM |  |  |  | > 100 µM |  | > 100 µM |  | > 100 µM |  | > 100 µM |  | > 100 µM |  | > 100 µM |  |  |
| CSC(=S)NN=C1CCCCC1 |  | > 100 µM |  | > 100 µM |  | > 100 µM |  | 0.647 µM |  | > 100 µM |  | 42.4 µM |  | > 100 µM |  | > 100 µM |  | > 100 µM |  |  |
| COC1OC(C)C(OC(=O)C(C)(C)C)C(C)(O)C1O (stereo unspecified) |  |  |  |  |  |  |  | > 100 µM |  | > 100 µM |  |  |  | > 100 µM |  | > 100 µM |  | > 100 µM | > 100 µM |  |
| O=C(C#Cc1c[nH]c(=O)[nH]c1=O)c1ccccc1 |  |  |  | 24.8 µM |  |  |  | 30.1 µM |  | 18.9 µM |  | 63.9 µM |  | 28.6 µM |  | 19.6 µM |  | 24.9 µM |  |  |
| CN(C)CC1(C)CC/C(=C\c2ccc3c(c2)OCO3)C1=O (stereo unspecified) |  |  |  | > 100 µM |  |  |  | 81.4 µM |  | > 100 µM |  | > 100 µM |  | > 100 µM |  | > 100 µM |  | > 100 µM | > 100 µM |  |
